In US9309224B2 (Deciphera Pharmaceuticals, LLC, priority 2013, dated 2016):

Tests used:
[1] = target: T1, unphosphorylated c-FMS kinase (uFMS, Seq. ID no. 1) (Homo sapiens, UniProt P07333); experiment: uFMS kinase assay (pyruvate kinase/lactate dehydrogenase coupled); assay type: biochemical; conditions: ATP 500 μM
T1 construct: purchased Millipore
T1 sequence (P07333 538-972): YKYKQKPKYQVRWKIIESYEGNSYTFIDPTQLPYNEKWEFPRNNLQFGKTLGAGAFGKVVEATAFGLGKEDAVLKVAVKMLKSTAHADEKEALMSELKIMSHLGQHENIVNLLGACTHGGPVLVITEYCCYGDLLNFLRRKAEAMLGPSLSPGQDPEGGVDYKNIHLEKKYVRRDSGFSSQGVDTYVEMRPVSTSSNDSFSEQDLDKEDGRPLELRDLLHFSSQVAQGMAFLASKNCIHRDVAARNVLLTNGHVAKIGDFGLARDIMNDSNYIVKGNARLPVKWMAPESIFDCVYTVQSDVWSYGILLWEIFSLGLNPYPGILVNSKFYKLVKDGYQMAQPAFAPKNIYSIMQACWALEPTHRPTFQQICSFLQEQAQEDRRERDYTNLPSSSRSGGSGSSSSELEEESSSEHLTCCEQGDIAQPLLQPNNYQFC

[2] = target: T2, unphosphorylated c-KIT kinase (uKIT, Seq. ID no. 2) (Homo sapiens, UniProt P10721); experiment: uKit kinase assay (pyruvate kinase/lactate dehydrogenase coupled); assay type: biochemical; conditions: ATP 2000 μM
T2 construct: uKit with N-terminal GST fusion used for
Experimental: In this assay, the oxidation of NADH (thus the decrease at A340 nm) was continuously monitored spectrophometrically. […] The inhibition reaction was started by mixing serial diluted test compound with the above reaction mixture. The absorption at 340 nm was monitored continuously for 4 hours at 30° C. on Synergy 2 plate reader (BioTech).

[3] = target: T3, unphosphorylated PDGFRβ kinase (uPDGFRβ, Seq. ID No. 3) (Homo sapiens, UniProt P09619); experiment: Unphosphorylated PDGFRβ kinase assay (pyruvate kinase/lactate dehydrogenase coupled); assay type: biochemical; conditions: ATP 500 μM
T3 construct: purchased DeCode
Description: Unphosyhorylated PDGFRβ (uPDGFRβkinase (Seq. ID No. 3) assay

M-NFS-60 cells = experiment: M-NFS-60 cell proliferation assay; assay type: cell-based; conditions: 67 h incubation, resazurin
Experimental: M-NFS-60 Cell Proliferation Assay A serial dilution of test compound was dispensed into a 384-well black clear bottom plate (Corning, Corning, N.Y.). Two thousand five hundred cells were added per well in 50 μL complete growth medium. […] IC50 values were calculated from a series of percent inhibition values determined at a range of inhibitor concentrations using software routines as implemented in the GraphPad Prism software package.

osteoclast precursors = experiment: Osteoclast tartrate-resistant acid phosphatase assay; assay type: cell-based; conditions: 7-14 days, RANKL and M-CSF
Experimental: Diluted compound was transferred to a 384-well black clear bottom plate. Two-thousand five hundred osteoclast precursors (Lonza, Walkersville, Md.) were added per well in growth media containing Receptor Activator of Nuclear Factor Kappa-beta ligand (RANKL) and M-CSF (R&D Systems, Minneapolis, Minn.). Plates were incubated for 7-14 days at 37 degrees Celsius, 5% CO2, and 95% humidity to allow differentiation of osteoclast precursors. […] Tartrate-resistant acid phosphatase activity in the supernatant samples was determined using an acid phosphatase assay kit (Sigma, St. Louis, Mo.). Absorbance was measured at 550 nm using a plate reader. Data was analyzed using Prism software (Graphpad, San Diego, Calif.) to calculate IC50 values.

T3 sequence (P09619 557-1105): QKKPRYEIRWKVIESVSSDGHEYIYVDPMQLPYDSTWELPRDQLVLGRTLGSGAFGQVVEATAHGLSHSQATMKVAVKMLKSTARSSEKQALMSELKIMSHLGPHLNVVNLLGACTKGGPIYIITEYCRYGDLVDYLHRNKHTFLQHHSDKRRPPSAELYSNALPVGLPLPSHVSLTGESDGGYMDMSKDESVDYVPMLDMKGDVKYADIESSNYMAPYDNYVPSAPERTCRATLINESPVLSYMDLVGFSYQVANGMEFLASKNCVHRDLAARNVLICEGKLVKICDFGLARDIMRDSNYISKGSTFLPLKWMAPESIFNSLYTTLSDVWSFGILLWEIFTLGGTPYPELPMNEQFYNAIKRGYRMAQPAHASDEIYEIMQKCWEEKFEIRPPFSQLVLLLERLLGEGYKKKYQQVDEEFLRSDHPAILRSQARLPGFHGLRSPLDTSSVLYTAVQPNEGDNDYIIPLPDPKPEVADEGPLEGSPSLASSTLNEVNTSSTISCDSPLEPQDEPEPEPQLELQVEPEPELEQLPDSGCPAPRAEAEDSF
T2 sequence (P10721 with tags, fused parts or gaps): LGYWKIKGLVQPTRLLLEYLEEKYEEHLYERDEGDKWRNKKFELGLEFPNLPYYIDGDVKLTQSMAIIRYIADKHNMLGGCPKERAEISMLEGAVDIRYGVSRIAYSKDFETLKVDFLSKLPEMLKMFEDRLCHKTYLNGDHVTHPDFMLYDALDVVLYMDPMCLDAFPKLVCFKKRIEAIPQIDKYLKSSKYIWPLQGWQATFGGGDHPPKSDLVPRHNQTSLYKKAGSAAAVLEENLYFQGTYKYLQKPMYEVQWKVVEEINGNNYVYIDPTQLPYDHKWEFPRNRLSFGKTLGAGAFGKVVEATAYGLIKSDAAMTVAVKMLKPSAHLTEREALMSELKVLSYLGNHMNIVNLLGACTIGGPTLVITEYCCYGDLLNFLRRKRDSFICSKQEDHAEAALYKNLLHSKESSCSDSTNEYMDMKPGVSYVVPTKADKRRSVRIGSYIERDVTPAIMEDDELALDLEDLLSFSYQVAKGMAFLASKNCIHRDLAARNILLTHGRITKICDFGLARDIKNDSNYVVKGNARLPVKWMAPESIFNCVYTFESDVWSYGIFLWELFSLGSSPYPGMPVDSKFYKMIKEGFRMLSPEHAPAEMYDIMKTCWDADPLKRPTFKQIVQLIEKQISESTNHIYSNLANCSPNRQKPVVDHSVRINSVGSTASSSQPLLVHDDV

SMILES | IC50 [1] | IC50 [2] | IC50 [3] | IC50 (osteoclast precursors; Osteoclast) | IC50 (osteoclast precursors) | IC50 (M-NFS-60 cells)
CC(C)(C)C(=O)NC(=O)Nc1ccc(Oc2ccnc(NC(=O)C3CC3)c2)cn1 [Example 18, N-(4-((6-(3-pivaloylureido)pyridin-3-yl)oxy)pyridin-2-yl)cyclopropanecarboxamide] | < 10 nM | 100 to 1000 nM | 100 to 1000 nM | < 10 nM | – | < 10 nM
CCC(=O)Nc1cc(Oc2ccc(NC(=O)NC(=O)C3CCOCC3)nc2)ccn1 [Example 32, N-((5-((2-propionamidopyridin-4-yl)oxy)pyridin-2-yl)carbamoyl)tetrahydro-2H-pyran-4-carboxamide] | 10 to 100 nM | > 1000 nM | 10 to 100 nM | 10 to 100 nM | – | 10 to 100 nM
CN1CCC(C(=O)Nc2cc(Oc3ccc(NC(=O)NC(=O)C(C)(C)C)nc3)ccn2)C1 (centres unmarked) [Example 55, 1-methyl-N-(4-((6-(3-pivaloylureido)pyridin-3-yl)oxy)pyridin-2-yl)pyrrolidine-3-carboxamide] | 10 to 100 nM | > 1000 nM | > 1000 nM | 100 to 1000 nM | – | > 1000 nM
COC1(C(=O)NC(=O)Nc2ccc(Oc3ccnc(NC(=O)C4CCN(C)CC4)c3)cn2)CC1 [Example 49, N-(4-((6-(3-(1-methoxycyclopropanecarbonyl)ureido)pyridin-3-yl)oxy)pyridin-2-yl)-1-methylpiperidine-4-carboxamide] | 10 to 100 nM | > 1000 nM | > 1000 nM | 100 to 1000 nM | – | > 1000 nM
CCC(=O)NC(=O)Nc1ccc(Oc2ccnc(NC(C)=O)c2)cn1 [Example 16, N-((5-((2-acetamidopyridin-4-yl)oxy)pyridin-2-yl)carbamoyl)propionamide] | 100 to 1000 nM | > 1000 nM | > 1000 nM | 100 to 1000 nM | – | 100 to 1000 nM
CC(=O)Nc1cc(Oc2ccc(NC(=O)NC(=O)C(C)C)nc2)ccn1 [Example 15, N-((5-((2-acetamidopyridin-4-yl)oxy)pyridin-2-yl)carbamoyl)isobutyramide] | 10 to 100 nM | > 1000 nM | 100 to 1000 nM | 10 to 100 nM | – | 10 to 100 nM
CC(C)(C)C(=O)NC(=O)Nc1ccc(Oc2ccnc(NC(=O)N3CCCC3)c2)cn1 [Example 78, N-(4-((6-(3-pivaloylureido)pyridin-3-yl)oxy)pyridin-2-yl)pyrrolidine-1-carboxamide] | < 10 nM | 10 to 100 nM | 10 to 100 nM | < 10 nM | – | < 10 nM
CC(=O)Nc1cc(Oc2ccc(NC(=O)NC(=O)C3CCOC3)nc2C)ccn1 (centres unmarked) [Example 14, N-((5-((2-acetamidopyridin-4-yl)oxy)-6-methylpyridin-2-yl)carbamoyl)tetrahydrofuran-3-carboxamide] | 100 to 1000 nM | > 1000 nM | > 1000 nM | 100 to 1000 nM | – | 10 to 100 nM
CN(C)C1CC(C(=O)Nc2cc(Oc3ccc(NC(=O)NC(=O)C(C)(C)C)nc3)ccn2)C1 (centres unmarked) [Example 60, (1s,3s)-3-(dimethylamino)-N-(4-((6-(3-pivaloylureido)pyridin-3-yl)oxy)pyridin-2-yl)cyclobutanecarboxamide] | 10 to 100 nM | > 1000 nM | 100 to 1000 nM | 10 to 100 nM | – | 100 to 1000 nM
CCC(=O)Nc1cc(Oc2ccc(NC(=O)NC(=O)C3(OC)CC3)nc2)ccn1 [Example 39, 1-methoxy-N-((5-((2-propionamidopyridin-4-yl)oxy)pyridin-2-yl)carbamoyl)cyclopropanecarboxamide] | 10 to 100 nM | > 1000 nM | > 1000 nM | 10 to 100 nM | – | 10 to 100 nM
CC(=O)Nc1cc(Oc2ccc(NC(=O)NC(=O)C3CCOC3)nc2)ccn1 (centres unmarked) [Example 22, N-((5-((2-acetamidopyridin-4-yl)oxy)pyridin-2-yl)carbamoyl)tetrahydrofuran-3-carboxamide] | 10 to 100 nM | > 1000 nM | > 1000 nM | 10 to 100 nM | – | 100 to 1000 nM
CC(=O)Nc1cc(Oc2ccc(NC(=O)NC(=O)C3CC4CCC3O4)nc2C)ccn1 (centres unmarked) [Example 29, N-((5-((2-acetamidopyridin-4-yl)oxy)-6-methylpyridin-2-yl)carbamoyl)-7-oxabicyclo[2.2.1]heptane-2-carboxamide] | 10 to 100 nM | > 1000 nM | – | 10 to 100 nM | – | 10 to 100 nM
CC(=O)Nc1cc(Oc2ccc(NC(=O)NC(=O)C3CCCCC3)nc2)ccn1 [Example 1, N-((5-((2-acetamidopyridin-4-yl)oxy)pyridin-2-yl)carbamoyl)cyclohexanecarboxamide] | 10 to 100 nM | 100 to 1000 nM | – | < 10 nM | – | < 10 nM

Second part, led by results:

IC50 [1] | IC50 [2] | IC50 [3] | IC50 (osteoclast precursors; Osteoclast) | IC50 (osteoclast precursors) | SMILES | IC50 (M-NFS-60 cells)
< 10 nM | 10 to 100 nM | 100 to 1000 nM | < 10 nM | – | Cn1cc(C(=O)Nc2cc(Oc3ccc(NC(=O)NC(=O)C(C)(C)C)nc3)ccn2)cn1 [Example 52, 1-methyl-N-(4-((6-(3-pivaloylureido)pyridin-3-yl)oxy)pyridin-2-yl)-1H-pyrazole-4-carboxamide] | < 10 nM
< 10 nM | 100 to 1000 nM | – | < 10 nM | – | CC(=O)Nc1cc(Oc2ccc(NC(=O)NC(=O)C3CC4CCC3O4)nc2)ccn1 (centres unmarked) [Example 28, N-((5-((2-acetamidopyridin-4-yl)oxy)pyridin-2-yl)carbamoyl)-7-oxabicyclo[2.2.1]heptane-2-carboxamide] | 10 to 100 nM
10 to 100 nM | > 1000 nM | 100 to 1000 nM | – | 10 to 100 nM | CN(C)C1CC(C(=O)Nc2cc(Oc3ccc(NC(=O)NC(=O)C(C)(C)C)nc3)ccn2)C1 (centres unmarked) [Example 61, (1r,3r)-3-(dimethylamino)-N-(4-((6-(3-pivaloylureido)pyridin-3-yl)oxy)pyridin-2-yl)cyclobutanecarboxamide] | 100 to 1000 nM
100 to 1000 nM | > 1000 nM | > 1000 nM | 10 to 100 nM | – | CN1CCC(NC(=O)c2cc(Oc3ccc(NC(=O)NC(=O)C(C)(C)C)nc3)ccn2)CC1 [Example 75, N-(1-methylpiperidin-4-yl)-4-((6-(3-pivaloylureido)pyridin-3-yl)oxy)picolinamide] | > 1000 nM
10 to 100 nM | > 1000 nM | > 1000 nM | 10 to 100 nM | – | CC(C)(C)C(=O)NC(=O)Nc1ccc(Oc2ccnc(C(=O)NC3CC3)c2)cn1 [Example 74, N-cyclopropyl-4-((6-(3-pivaloylureido)pyridin-3-yl)oxy)picolinamide] | 100 to 1000 nM
10 to 100 nM | > 1000 nM | > 1000 nM | 10 to 100 nM | – | CNC(=O)c1cc(Oc2ccc(NC(=O)NC(=O)C3(C(F)(F)F)CCC3)nc2)ccn1 [Example 72, N-methyl-4-((6-(3-(1-(trifluoromethyl)cyclobutanecarbonyl)ureido)pyridin-3-yl)oxy)picolinamide] | 100 to 1000 nM
10 to 100 nM | > 1000 nM | 10 to 100 nM | 10 to 100 nM | – | CC(=O)Nc1cc(Oc2ccc(NC(=O)NC(=O)CC3CCOCC3)nc2)ccn1 [Example 6, N-((5-((2-acetamidopyridin-4-yl)oxy)pyridin-2-yl)carbamoyl)-2-(tetrahydro-2H-pyran-4-yl)acetamide] | 100 to 1000 nM
< 10 nM | 100 to 1000 nM | 10 to 100 nM | 10 to 100 nM | – | CN(C)C(=O)Nc1cc(Oc2ccc(NC(=O)NC(=O)C3CCOCC3)nc2)ccn1 [Example 51, N-((5-((2-(3,3-dimethylureido)pyridin-4-yl)oxy)pyridin-2-yl)carbamoyl)tetrahydro-2H-pyran-4-carboxamide] | 10 to 100 nM
< 10 nM | 10 to 100 nM | – | < 10 nM | – | CC(=O)Nc1cc(Oc2ccc(NC(=O)NC(=O)CC3CCCCC3)nc2)ccn1 [Example 4, N-((5-((2-acetamidopyridin-4-yl)oxy)pyridin-2-yl)carbamoyl)-2-cyclohexylacetamide] | < 10 nM
10 to 100 nM | > 1000 nM | – | 10 to 100 nM | – | COC(C)(C)C(=O)NC(=O)Nc1ccc(Oc2ccnc(NC(=O)C3CCN(C)CC3)c2)cn1 [Example 40, N-(4-((6-(3-(2-methoxy-2-methylpropanoyl)ureido)pyridin-3-yl)oxy)pyridin-2-yl)-1-methylpiperidine-4-carboxamide] | 100 to 1000 nM
